Experimental findings from patent US7635716B2, “Substituted cyclopentanes or cyclopentanones as therapeutic agents” (Allergan, Inc., priority 2005, dated 2009) are described below.

Read-outs that look alike come from different tables or passages of the source. Some results are limits rather than exact numbers.

One data set has as its target T1, hEP2/Gqs5 (Homo sapiens, UniProt P43116).
T1 construct: expressed in transfected cells; host or cells: HEK-293(EBNA) cells
The data set can be described thus: FLIPR calcium signal, HEK-293(EBNA) cells. Type of data set: cell-based. The method, then: (§1) HEK-293(EBNA) cells, stably expressing one type or subtype of recombinant human prostaglandin receptors (prostaglandin receptors expressed: hDP/Gqs5; hEP1; hEP2/Gqs5; hEP3A/Gqi5; hEP4/Gqs5; hFP; hIP; hTP), were cultured in 100 mm culture dishes in high-glucose DMEM medium containing 10% fetal bovine serum, 2 mM 1-glutamine, 250 μg/ml geneticin (G418) and 200 μg/ml hygromycin B as selection markers, and 100 units/ml penicillin G, 100 μg/ml streptomycin and 0.25 μg/ml amphotericin B.
(§2) Cells were seeded at a density of 5×10^4 cells per well in Biocoat® Poly-D-lysine-coated black-wall, clear-bottom 96-well plates (Becton-Dickinson) and allowed to attach overnight in an incubator at 37° C. Cells were then washed two times with HBSS-HEPES buffer (Hanks Balanced Salt Solution without bicarbonate and phenol red, 20 mM HEPES, pH 7.4) using a Denley Cellwash plate washer (Labsystems). After 45 minutes of dye-loading in the dark, using the calcium-sensitive dye Fluo-4 AM at a final concentration of 2 μM, plates were washed four times with HBSS-HEPES buffer to remove excess dye leaving 100 μl in each well. Plates were re-equilibrated to 37° C. for a few minutes.
(§3) Cells were excited with an Argon laser at 488 nm, and emission was measured through a 510-570 nm bandwidth emission filter (FLIPR™, Molecular Devices, Sunnyvale, Calif.). Drug solution was added in a 50 μl volume to each well to give the desired final concentration. The peak increase in fluorescence intensity was recorded for each well. On each plate, four wells each served as negative (HBSS-HEPES buffer) and positive controls (standard agonists: BW245C (hDP); PGE2 (hEP1; hEP2/Gqs5; hEP3A/Gqi5; hEP4/Gqs5); PGF2. (hFP); carbacyclin (hIP); U-46619 (hTP), depending on receptor). The peak fluorescence change in each drug-containing well was then expressed relative to the controls.
(§4) Compounds were tested in a high-throughput (HTS) or concentration-response (CoRe) format. In the HTS format, forty-four compounds per plate were examined in duplicates at a concentration of 10^−5 M. To generate concentration-response curves, four compounds per plate were tested in duplicates in a concentration range between 10^−5 and 10^−11 M. The duplicate values were averaged. In either, HTS or CoRe format each compound was tested on at least 3 separate plates using cells from different passages to give an n≧3.

Another data set deals with T2, hEP4/Gqs5 (Homo sapiens, UniProt P35408).
T2 construct: expressed in transfected cells; host or cells: HEK-293(EBNA) cells
T2 sequence (P35408 whole entry): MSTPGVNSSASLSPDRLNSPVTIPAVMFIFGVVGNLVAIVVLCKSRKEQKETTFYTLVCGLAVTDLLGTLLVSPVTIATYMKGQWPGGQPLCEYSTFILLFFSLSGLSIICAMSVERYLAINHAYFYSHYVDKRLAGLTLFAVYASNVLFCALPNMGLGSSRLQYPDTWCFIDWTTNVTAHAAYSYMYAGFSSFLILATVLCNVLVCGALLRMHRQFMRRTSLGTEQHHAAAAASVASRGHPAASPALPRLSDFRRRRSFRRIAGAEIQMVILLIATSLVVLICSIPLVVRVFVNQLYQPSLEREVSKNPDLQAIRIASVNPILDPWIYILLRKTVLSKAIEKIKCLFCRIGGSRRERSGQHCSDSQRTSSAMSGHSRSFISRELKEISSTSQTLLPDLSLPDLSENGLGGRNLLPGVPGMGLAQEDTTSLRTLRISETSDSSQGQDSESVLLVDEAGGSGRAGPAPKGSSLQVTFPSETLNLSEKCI
In words: FLIPR calcium signal, HEK-293(EBNA) cells. The format is cell-based. The method, then: as §1, §2, §3, §4

Data set [1] has as its system laser-induced hypertensive monkeys. The data set can be described thus: Intraocular pressure (IOP) in laser-induced hypertensive monkeys. The format is in vivo, monkey. Conditions: Primates, topical, 0.1%, one single day dose, read-out: maximum IOP decrease from baseline (percent). The method, then: (§5) (Z)-7-[(1R,2S,3R,5R)-5-Chloro-2-(3,5-dichloro-phenoxymethyl)-3-hydroxy-cyclopentyl]-hept-5-enoic acid (15b) was tested at multiple concentrations in normotensive dogs, dosing once daily for 5 days. At 0.05%, the maximum IOP decrease from baseline was 4.3 mmHg (30%) at 6 h; the maximum OSH score was 0.6 at 6 h. […] This compound was also tested in laser-induced hypertensive monkeys, using one single day dose. At 0.1%, the maximum IOP decrease from baseline was 6 mmHg (19%) at 6 h.
(§6) (Z)-7-[(1R,2S,3R,5R)-5-Chloro-2-(3,5-dichloro-phenoxymethyl)-3-hydroxy-cyclopentyl]-hept-5-enoic acid isopropyl ester (42b) was tested in normotensive dogs at 0.05%, dosing once daily for 5 days. The maximum intraocular pressure (IOP) decrease from baseline was 3 mmHg (19%) at 6 h; the maximum ocular surface hyperemia (OSH) score was 0.6 at 74 h. This compound was also tested in laser-induced hypertensive monkeys, using one single day dose. At 0.01%, the maximum IOP decrease from baseline was 6 mmHg (16%) at 6 h.

The test system of data set [2] is normotensive dogs. In words: Intraocular pressure (IOP) in normotensive dogs. The format is in vivo, dog. As to conditions: Canis lupus familiaris, topical, 120 h, 0.1%, dosing once daily for 5 days, read-out: maximum IOP decrease from baseline (percent). The method, then:
as §5, §6

Data set [3] has as its system normotensive dogs. The data set can be described thus: Ocular surface hyperemia (OSH) in normotensive dogs. The format is in vivo, dog. Details: maximum OSH score: scale not given here. Conditions: 0.1%, dosing once daily for 5 days. On the procedure: as §5, §6
Another data set has as its target T3, hEP3A/Gqi5 (Homo sapiens, UniProt P43115).
T3 construct: expressed in transfected cells; host or cells: HEK-293(EBNA) cells
T3 sequence (P43115 1-390): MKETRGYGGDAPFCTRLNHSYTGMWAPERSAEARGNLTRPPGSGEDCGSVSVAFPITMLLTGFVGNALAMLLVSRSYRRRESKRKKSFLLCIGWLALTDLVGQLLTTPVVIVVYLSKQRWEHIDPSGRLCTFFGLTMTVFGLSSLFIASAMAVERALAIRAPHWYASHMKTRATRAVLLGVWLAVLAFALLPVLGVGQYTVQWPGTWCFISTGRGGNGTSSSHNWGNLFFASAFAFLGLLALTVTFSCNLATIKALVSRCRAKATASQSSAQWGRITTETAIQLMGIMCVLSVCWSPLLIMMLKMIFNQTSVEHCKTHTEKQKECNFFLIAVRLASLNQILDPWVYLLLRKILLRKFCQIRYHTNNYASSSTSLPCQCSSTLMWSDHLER
In words: FLIPR calcium signal, HEK-293(EBNA) cells. The format is cell-based. The method, then:
as §1, §2, §3, §4

The target of a further data set is T4, hDP/Gqs5 (Homo sapiens, UniProt Q13258).
T4 construct: expressed in transfected cells; host or cells: HEK-293(EBNA) cells
T4 sequence (Q13258 1-359): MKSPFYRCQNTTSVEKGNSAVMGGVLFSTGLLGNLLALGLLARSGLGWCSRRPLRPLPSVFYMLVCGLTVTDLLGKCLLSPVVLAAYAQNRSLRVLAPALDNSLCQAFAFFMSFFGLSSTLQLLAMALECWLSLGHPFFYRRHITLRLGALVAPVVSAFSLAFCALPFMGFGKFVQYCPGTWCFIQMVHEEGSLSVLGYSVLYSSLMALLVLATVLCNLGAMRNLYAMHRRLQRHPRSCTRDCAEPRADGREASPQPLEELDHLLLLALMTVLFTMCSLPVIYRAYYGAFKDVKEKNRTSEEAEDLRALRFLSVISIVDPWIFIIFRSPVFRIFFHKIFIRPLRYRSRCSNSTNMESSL
In words: FLIPR calcium signal, HEK-293(EBNA) cells. Type of data set: cell-based. On the procedure:
as §1, §2, §3, §4

Another data set deals with T5, hEP1 (Homo sapiens, UniProt P34995).
T5 construct: expressed in transfected cells; host or cells: HEK-293(EBNA) cells
T5 sequence (P34995 1-402): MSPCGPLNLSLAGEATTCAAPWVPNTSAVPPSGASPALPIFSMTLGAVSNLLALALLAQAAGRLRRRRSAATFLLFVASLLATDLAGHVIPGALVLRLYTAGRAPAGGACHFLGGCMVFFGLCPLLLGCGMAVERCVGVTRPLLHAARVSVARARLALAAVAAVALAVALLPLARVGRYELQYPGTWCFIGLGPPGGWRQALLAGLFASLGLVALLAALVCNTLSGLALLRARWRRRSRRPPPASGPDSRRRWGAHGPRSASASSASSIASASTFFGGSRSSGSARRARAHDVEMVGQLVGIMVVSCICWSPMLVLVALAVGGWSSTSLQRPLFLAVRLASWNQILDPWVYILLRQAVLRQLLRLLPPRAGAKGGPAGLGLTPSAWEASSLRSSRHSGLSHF
In words: FLIPR calcium signal, HEK-293(EBNA) cells. The format is cell-based. On the procedure: as §1, §2, §3, §4

Setting [4] is: Table 1, first part, triplicate, read-out: functional data (EC50) hEP2.
The mark [5] stands for this setting: Table 1, second part, read-out: hEP2 flipr EC50.
Setting [6] is: Table 1, first part, triplicate, read-out: functional data (EC50) hEP4.
The mark [7] stands for this setting: Table 1, second part, read-out: hEP4 flipr EC50.
Setting [8] is: Table 1, second part, quantity not given, values match functional data (EC50) of first part, read-out: Other Receptors hEP3.

T1 sequence (P43116 whole entry): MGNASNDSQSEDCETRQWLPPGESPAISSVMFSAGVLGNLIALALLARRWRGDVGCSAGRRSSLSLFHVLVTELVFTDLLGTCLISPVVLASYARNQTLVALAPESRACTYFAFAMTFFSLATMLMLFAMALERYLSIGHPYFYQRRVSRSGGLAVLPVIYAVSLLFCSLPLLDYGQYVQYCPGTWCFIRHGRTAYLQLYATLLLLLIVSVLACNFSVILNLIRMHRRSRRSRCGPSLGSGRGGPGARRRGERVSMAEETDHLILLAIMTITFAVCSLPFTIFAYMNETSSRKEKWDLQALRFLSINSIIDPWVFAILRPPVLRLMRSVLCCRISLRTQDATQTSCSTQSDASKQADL

With `COC(=O)CCCCCC[C@H]1C(=O)CC[C@@H]1COc1ccccc1` [Example 5, 7-((1R,5S)-2-Oxo-5-phenoxymethyl-cyclopentyl)-heptanoic acid methyl ester], the EC50 on hEP2/Gqs5 (setting [4]), at hEP2/Gqs5 (setting [5]), on hEP4/Gqs5 (setting [6]) and on hEP4/Gqs5 (setting [7]) was above 10 µM each time.
Consider `O=C(O)CCC/C=C\C[C@@H]1[C@@H](COc2cc(C(F)(F)F)cc(C(F)(F)F)c2)[C@H](O)C[C@H]1Cl` [Example 15, (Z)-7-[(1R,2S,3R,5R)-2-(3,5-Bis-trifluoromethyl-phenoxymethyl)-5-chloro-3-hydroxy-cyclopentyl]-hept-5-enoic acid], for which the inhibition in vivo at 0.1 % in data set [1] was 30%; with normotensive dogs [2] it was 35%. Further, the “maximum OSH score” value in the data set on normotensive dogs [3] was 0.9. Moreover, the “time of maximum OSH score” value in the data set with normotensive dogs [3] was found to be 52 h.
For `O=C(O)CCC/C=C\C[C@@H]1[C@@H](COc2cccc3ccccc23)[C@H](O)C[C@H]1Cl` [Example 19, (Z)-7-[(1R,2S,3R,5R)-5-Chloro-3-hydroxy-2-(naphthalen-1-yloxymethyl)-cyclopentyl]-hept-5-enoic acid] the same measures were 31%, 41%, 0.8 and 54 h.
As to `Cc1cc(C)cc(OC[C@@H]2[C@@H](C/C=C\CCCC(=O)OC(C)C)[C@H](Cl)C[C@H]2O)c1` [Example 70, (Z)-7-[(1R,2S,3R,5R)-5-Chloro-2-(3,5-dimethyl-phenoxymethyl)-3-hydroxy-cyclopentyl]-hept-5-enoic acid isopropyl ester], the inhibition in vivo at 0.1 % came out at 23% in data set [1] and 30% in the data set on normotensive dogs [2]. The “maximum OSH score” value with normotensive dogs [3] is 0.9. Also, in the data set with normotensive dogs [3], the “time of maximum OSH score” value is reported as 74 h.
In the case of `COC(=O)CCCCCC[C@@H]1[C@@H](COc2cc(Cl)cc(Cl)c2)[C@H](O)C[C@H]1Cl` [Example 13, 7-[(1R,2S,3R,5R)-5-Chloro-2-(3,5-dichloro-phenoxymethyl)-3-hydroxy-cyclopentyl]-heptanoic acid methyl ester], the EC50 was above 10 µM on hEP3A/Gqi5 (Table 1, first part, data represents a single experiment, read-out: functional data (EC50) hEP3A*); above 10 µM on hEP3A/Gqi5 (setting [8]); 1.66 µM at hEP2/Gqs5 (setting [4]); above 10 µM at hDP/Gqs5 (Table 1, first part, triplicate, read-out: functional data (EC50) hDP); above 10 µM at hDP/Gqs5 (Table 1, second part, quantity not given, values match functional data (EC50) of first part, read-out: Other Receptors hDP); above 10 µM at hEP1 (Table 1, first part, triplicate, read-out: functional data (EC50) hEP1). For the same molecule, the EC50 is above 10 µM on hEP1 (Table 1, second part, quantity not given, values match functional data (EC50) of first part, read-out: Other Receptors hEP1); above 10 µM on hEP4/Gqs5 (setting [6]); above 10 µM on hEP4/Gqs5 (setting [7]).
As to `O=C(O)CCC/C=C\C[C@@H]1[C@@H](COc2cccc(C(F)(F)F)c2)[C@H](O)C[C@H]1Cl` [Example 24, (Z)-7-[(1R,2S,3R,5R)-5-Chloro-3-hydroxy-2-(3-trifluoromethyl-phenoxymethyl)-cyclopentyl]-hept-5-enoic acid], the inhibition in vivo at 0.1 % in data set [1] came out at 28%. In addition, the inhibition in vivo at 0.1 % with normotensive dogs [2] was 16%. In the data set on normotensive dogs [3], the “maximum OSH score” value came out at 0.5 and the “time of maximum OSH score” value turned out to be 6 h.
As for `COC(=O)CCCCCC[C@@H]1[C@@H](COc2ccccc2)[C@H](O)C[C@H]1Cl` [Example 9, 7-((1R,2S,3R,5R)-5-Chloro-3-hydroxy-2-phenoxymethyl-cyclopentyl)-heptanoic acid methyl ester], the EC50 is above 10 µM at hEP2/Gqs5 (setting [4]), above 10 µM at hEP2/Gqs5 (setting [5]) and 3.71 µM on hEP4/Gqs5 (setting [6]).
Take `COC(=O)CCC/C=C\C[C@H]1C(=O)C=C[C@@H]1COc1ccccc1` [Example 1, (Z)-7-((1R,5S)-2-Oxo-5-phenoxymethyl-cyclopent-3-enyl)-hept-5-enoic acid methyl ester]: the EC50 on hEP2/Gqs5 (setting [4]), on hEP2/Gqs5 (setting [5]), on hEP4/Gqs5 (setting [6]) and on hEP4/Gqs5 (setting [7]) was above 10 µM each time.
`O=C(O)CCC/C=C\C[C@@H]1[C@@H](COc2cc(C(F)(F)F)cc(Cl)c2F)[C@H](O)C[C@H]1Cl` [Example 41, (Z)-7-[(1R,2S,3R,5R)-5-Chloro-2-(3-chloro-2-fluoro-5-trifluoromethyl-phenoxymethyl)-3-hydroxy-cyclopentyl]-hept-5-enoic acid]: the EC50 on hEP3A/Gqi5 (setting [8]) was 1.64 µM.
In the case of `COC(=O)CCC/C=C\C[C@@H]1[C@@H](COc2ccccc2)[C@H](O)C[C@H]1Cl` [Example 7, (Z)-7-((1R,2S,3R,5R)-5-Chloro-3-hydroxy-2-phenoxymethyl-cyclopentyl)-hept-5-enoic acid methyl ester], the EC50 on hEP2/Gqs5 (setting [4]), at hEP2/Gqs5 (setting [5]), on hEP4/Gqs5 (setting [6]) and at hEP4/Gqs5 (setting [7]) was above 10 µM in each case.
On to `COC(=O)CCC/C=C\C[C@H]1C(=O)C[C@@H](O)[C@@H]1COc1ccccc1` [Example 2, (Z)-7-((1R,2S,3R)-3-Hydroxy-5-oxo-2-phenoxymethyl-cyclopentyl)-hept-5-enoic acid methyl ester], for which the EC50 at hEP4/Gqs5 (setting [6]) and on hEP4/Gqs5 (setting [7]) was above 10 µM throughout.
